Patent US20250179073A1, “TRICYCLIC HETEROCYCLE COMPOUNDS AS IAP ANTAGONISTS” (Ascentage Pharma (Suzhou) Co., Ltd., priority 2022, published 2025)

Assays:
[1] = test system: MDA-MB-231 cells; assay: Cell proliferation assay (CellTiter-Glo), MDA-MB-231; type: cell-based; conditions: Homo sapiens, MDA-MB-231, 72 h, 72 h treatment, Celltiter-Glo luminescence
Procedure, shortened: (§1)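 Compounds tested over ten concentrations ([…]) for 72 h on EVSA-T cells in MEM/10% FBS and MDA-MB-231 cells in RPMI-1640/10% FBS, seeded at 10000/well. Luminescent CellTiter-Glo readout; IC50 fitted after normalisation to controls.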

[2] = test system: EVSA-T cells; assay: Cell proliferation assay (CellTiter-Glo), EVSA-T; type: cell-based; conditions: Homo sapiens, EVSA-T, 72 h, 72 h treatment, Celltiter-Glo luminescence
Procedure, shortened: as §1

SMILES | IC50 [1] [nM] | IC50 [2] [nM]
C[C@@H]1CN(CC(=O)N2CC(C)(C)c3c2cc(Cc2ccc(F)cc2)c2nc(C#N)nn32)[C@@H](CN2CCOC[C@H]2C)CN1 [Compound 32, 4-(4-fluorobenzyl)-8,8-dimethyl-6-(2-((2R,5R)-5-methyl-2-(((R)-3-methylmorpholino)methyl)piperazin-1-yl)acetyl)-7,8-dihydro-6H-pyrrolo[2,3-e][1,2,4]triazolo[1,5-a]pyridine-2-carbonitrile] | 60 | 20
C[C@@H]1CN(CC(=O)N2CC(C)(C)c3c2cc(Cc2ccc(F)cc2)c2nc(C(=O)NC4CC4)nn32)[C@@H](CN2CCOC[C@H]2C)CN1 [Compound 257, N-cyclopropyl-4-(4-fluorobenzyl)-8,8-dimethyl-6-(2-((2R,5R)-5-methyl-2-(((R)-3-methylmorpholino)methyl)piperazin-1-yl)acetyl)-7,8-dihydro-6H-pyrrolo[2,3-e][1,2,4]triazolo[1,5-a]pyridine-2-carboxamide] | 140 | 11.6
Cc1nc2c(Cc3ccc(F)cc3)cc3c(n2n1)C(C)(C)CN3C(=O)CN1C[C@@H](C)NC[C@@H]1CN1CCOC[C@H]1C [Compound 36, 1-(4-(4-fluorobenzyl)-2,8,8-trimethyl-7,8-dihydro-6H-pyrrolo[2,3-e][1,2,4]triazolo[1,5-a]pyridin-6-yl)-2-((2R,5R)-5-methyl-2-(((R)-3-methylmorpholino)methyl)piperazin-1-yl)ethan-1-one] | 36 | 2
C[C@@H]1CN(CC(=O)N2CC(C)(C)c3c2cc(Cc2ccc(F)cc2)c2ncnn32)[C@@H](CN2Cc3ccccc3C2=O)CN1 [Compound 94, 2-(((2R,5R)-1-(2-(4-(4-fluorobenzyl)-8,8-dimethyl-7,8-dihydro-6H-pyrrolo[2,3-e][1,2,4]triazolo[1,5-a]pyridin-6-yl)-2-oxoethyl)-5-methylpiperazin-2-yl)methyl)isoindolin-1-one] | 26 | 4
C[C@@H]1CN(CC(=O)N2CC(C)(C)c3c2cc(Cc2ccc(F)cc2)c2nn(C4CCC4O)c(=O)n32)[C@@H](CN2CCOC[C@H]2C)CN1 (stereo partly drawn) [Compound 273A, 4-(4-fluorobenzyl)-2-(2-hydroxycyclobutyl)-8,8-dimethyl-6-(2-((2R,5R)-5-methyl-2-(((R)-3-methylmorpholino)methyl)piperazin-1-yl)acetyl)-2,6,7,8-tetrahydro-1H-pyrrolo[2,3-e][1,2,4]triazolo[4,3-a]pyridin-1-one] | 23 | 1.24
C[C@@H]1CN(CC(=O)N2CC(C)(C)c3c2cc(Cc2ccc(F)cc2)c2nn(Cc4cncnc4)c(=O)n32)[C@@H](CN2CCOC[C@H]2C)CN1 [Compound 236, 4-(4-fluorobenzyl)-8,8-dimethyl-6-(2-((2R,5R)-5-methyl-2-(((R)-3-methylmorpholino)methyl)piperazin-1-yl)acetyl)-2-(pyrimidin-5-ylmethyl)-2,6,7,8-tetrahydro-1H-pyrrolo[2,3-e][1,2,4]triazolo[4,3-a]pyridin-1-one] | 87 | 0.7
C[C@@H]1CN(CC(=O)N2CC(C)(C)c3c2cc(Cc2ccc(F)cc2)c2nccn32)[C@@H](CN2CCOC[C@H]2C)CN1 [Example 17, 1-(4-(4-fluorobenzyl)-8,8-dimethyl-7,8-dihydro-6H-imidazo[1,2-a]pyrrolo[2,3-e]pyridin-6-yl)-2-((2R,5R)-5-methyl-2-(((R)-3-methylmorpholino)methyl)piperazin-1-yl)ethan-1-one] | 120 | 4
C[C@@H]1CN(CC(=O)N2CC(C)(C)c3c2cc(Cc2ccc(F)cc2)c2ncnn32)[C@@H](CN2Cc3ccc(F)cc3C2=O)CN1 [Compound 101, 6-fluoro-2-(((2R,5R)-1-(2-(4-(4-fluorobenzyl)-8,8-dimethyl-7,8-dihydro-6H-pyrrolo[2,3-e][1,2,4]triazolo[1,5-a]pyridin-6-yl)-2-oxoethyl)-5-methylpiperazin-2-yl)methyl)isoindolin-1-one] | 23 | 8
C[C@@H]1CN(CC(=O)N2CC(C)(C)c3c2cc(Cc2ccc(F)cc2)c2nn(CC(C)(C)O)c(=O)n32)[C@@H](CN2CCN(C3COC3)C[C@H]2C)CN1 [Compound 267, 4-(4-fluorobenzyl)-2-(2-hydroxy-2-methylpropyl)-8,8-dimethyl-6-(2-((2R,5R)-5-methyl-2-(((R)-2-methyl-4-(oxetan-3-yl)piperazin-1-yl)methyl)piperazin-1-yl)acetyl)-2,6,7,8-tetrahydro-1H-pyrrolo[2,3-e][1,2,4]triazolo[4,3-a]pyridin-1-one] | 34 | 19.6
C[C@@H]1CN(CC(=O)N2CC(C)(C)c3c2cc(Cc2ccc(F)cc2)c2nc(C(F)(F)F)cn32)[C@@H](CN2CCOCC23CC3)CN1 [Compound 147, 2-((2R,5R)-2-((7-oxa-4-azaspiro[2.5]octan-4-yl)methyl)-5-methylpiperazin-1-yl)-1-(4-(4-fluorobenzyl)-8,8-dimethyl-2-(trifluoromethyl)-7,8-dihydro-6H-imidazo[1,2-a]pyrrolo[2,3-e]pyridin-6-yl)ethan-1-one] | 120 | 10
C[C@@H]1CN(CC(=O)N2CC(C)(C)c3c2cc(Cc2ccc(F)cc2)c2nc(C(F)(F)F)cn32)[C@@H](CN2CCOC[C@H]2C)CN1 [Compound 116, 1-(4-(4-fluorobenzyl)-8,8-dimethyl-2-(trifluoromethyl)-7,8-dihydro-6H-imidazo[1,2-a]pyrrolo[2,3-e]pyridin-6-yl)-2-((2R,5R)-5-methyl-2-(((R)-3-methylmorpholino)methyl)piperazin-1-yl)ethan-1-one] | 93 | 19
C[C@@H]1CN(CC(=O)N2CC(C)(C)c3c2cc(Cc2ccc(F)cc2)c2nc(NC=O)nn32)[C@@H](CN2CCOC[C@H]2C)CN1 [Compound 239, N-(4-(4-fluorobenzyl)-8,8-dimethyl-6-(2-((2R,5R)-5-methyl-2-(((R)-3-methylmorpholino)methyl)piperazin-1-yl)acetyl)-7,8-dihydro-6H-pyrrolo[2,3-e][1,2,4]triazolo[1,5-a]pyridin-2-yl)formamide] | 14 | 0.5
C[C@@H]1CN(CC(=O)N2CC(C)(C)c3c2cc(C(F)c2ccc(F)cc2)c2ncnn32)[C@@H](CN2CCOC[C@H]2C)CN1 (stereo partly drawn) [Compound 138, 1-(4-(fluoro(4-fluorophenyl)methyl)-8,8-dimethyl-7,8-dihydro-6H-pyrrolo[2,3-e][1,2,4]triazolo[1,5-a]pyridin-6-yl)-2-((2R,5R)-5-methyl-2-(((R)-3-methylmorpholino)methyl)piperazin-1-yl)ethan-1-one] | 160 | 33
Cc1cc(F)ccc1Cc1cc2c(n3ncnc13)C(C)(C)CN2C(=O)CN1C[C@@H](C)NC[C@@H]1CN1CCOC[C@H]1C [Compound 115, 1-(4-(4-fluoro-2-methylbenzyl)-8,8-dimethyl-7,8-dihydro-6H-pyrrolo[2,3-e][1,2,4]triazolo[1,5-a]pyridin-6-yl)-2-((2R,5R)-5-methyl-2-(((R)-3-methylmorpholino)methyl)piperazin-1-yl)ethan-1-one] | 160 | 30
Cc1ncc2c(Cc3ccc(F)cc3)cc3c(n12)C(C)(C)CN3C(=O)CN1C[C@@H](C)NC[C@@H]1CN1CCOC[C@H]1C [Compound 2, 1-(4-(4-fluorobenzyl)-1,8,8-trimethyl-7,8-dihydro-6H-imidazo[1,5-a]pyrrolo[2,3-e]pyridin-6-yl)-2-((2R,5R)-5-methyl-2-(((R)-3-methylmorpholino)methyl)piperazin-1-yl)ethan-1-one] | 110 | 13
C[C@@H]1CN(CC(=O)N2CC(C)(C)c3c2cc([C@H](O)c2ccc(F)cc2)c2ncnn32)[C@@H](CN2CCOC[C@H]2C)CN1 [Compound 134, 1-(4-((R)-(4-fluorophenyl)(hydroxy)methyl)-8,8-dimethyl-7,8-dihydro-6H-pyrrolo[2,3-e][1,2,4]triazolo[1,5-a]pyridin-6-yl)-2-((2R,5R)-5-methyl-2-(((R)-3-methylmorpholino)methyl)piperazin-1-yl)ethan-1-one] | 190 | 83
CC(c1ccc(F)cc1)c1cc2c(n3ncnc13)C(C)(C)CN2C(=O)CN1C[C@@H](C)NC[C@@H]1CN1CCOC[C@H]1C (stereo partly drawn) [Compound 45, 1-(4-(1-(4-fluorophenyl)ethyl)-8,8-dimethyl-7,8-dihydro-6H-pyrrolo[2,3-e][1,2,4]triazolo[1,5-a]pyridin-6-yl)-2-((2R,5R)-5-methyl-2-(((R)-3-methylmorpholino)methyl)piperazin-1-yl)ethan-1-one] | 180 | 40
CC(=O)c1nc2c(Cc3ccc(F)cc3)cc3c(n2n1)C(C)(C)CN3C(=O)CN1C[C@@H](C)NC[C@@H]1CN1CCOC[C@H]1C [Compound 224, 1-(2-acetyl-4-(4-fluorobenzyl)-8,8-dimethyl-7,8-dihydro-6H-pyrrolo[2,3-e][1,2,4]triazolo[1,5-a]pyridin-6-yl)-2-((2R,5R)-5-methyl-2-(((R)-3-methylmorpholino)methyl)piperazin-1-yl)ethan-1-one] | 120 | 2
C[C@@H]1CN(CC(=O)N2CC(C)(C)c3c2cc(Cc2ccc(F)cc2)c2nn(C)c(=O)n32)[C@@H](CN2CCOC[C@H]2C)CN1 [Compound 135, 4-(4-fluorobenzyl)-2,8,8-trimethyl-6-(2-((2R,5R)-5-methyl-2-(((R)-3-methylmorpholino)methyl)piperazin-1-yl)acetyl)-2,6,7,8-tetrahydro-1H-pyrrolo[2,3-e][1,2,4]triazolo[4,3-a]pyridin-1-one] | 40 | 4
